Experimental data taken from patent US11369666B2, “Treatment of diseases involving mucin” (NewSouth Innovations Pty Limited, priority 2012, dated 2022).
Values joined by “and” are separate entries in the source; they are usually repeats but may differ in a detail not shown here. Equal values may be shown once.

What was measured:
MUC 1 cell lines = assay: Br and NAC with chemotherapy drugs in MUC 1 cell lines (FIG. 11, 12); assay type: cell-based; conditions: low doses of Cisplatin, FIG. 11 and 12
Description: The combination of Br and NAC with chemotherapy drugs in MUC 1 cell lines was investigated (see FIGS. 11 and 12).

PMP tumor/mucin = assay: Breakdown of PMP tumor/mucin specimens from 31 patients in the laboratory; assay type: biochemical, human; conditions: for Residual mucin weight post treatment: 300 μg/ml Br, 5% NAC or both
Description: Specimens of tumor/mucin were taken from the abdomen and then subjected to treatment in the laboratory with 300 μg/ml Br, 5% NAC, or a mixture of both, for 3 hours at 37° C. The weight of mucin tumor was measured before and after treatment.

human PMP mucin = assay: Time course for dissolution of human PMP mucin in the laboratory (FIG. 1); assay type: biochemical; conditions: FIG. 1, agent alone
[1] = test system: MKN 45 human gastric mucin secreting cancer cell line; assay: In vitro growth, SRB assay, 72 hour culture (FIG. 7a); assay type: cell-based; conditions: MKN 45, SRB assay, agents individually
Description: MKN 45 is a human gastric mucin secreting cancer cell line. The effect of NAC, Br and the combination on in vitro growth (SRB assay, 72 hour culture) was studied.

variant of HT29 (5M21) = assay: Effect of Br and NAC combination on chemotherapy (FIG. 8); assay type: cell-based
Description: Chemo resistance of mucin secreting cancers is common. The experiments in FIG. 8 again relate to a variant of HT29 (5M21). A combination of Br and NAC was effective, whereas the individual agents were not effective.

[2] = test system: mesothelioma cell lines PET and YOU (MUC1); assay: Growth inhibition of MUC1 mesothelioma cell lines (FIG. 9, 10); assay type: cell-based
Description: The two mesothelioma cell lines PET and YOU (both of which have MUC1) were investigated. These cell lines are different from cancer cells which secrete mucin externally or that have mucin internally in the cell (signet cell).

`N.N.[Cl][Pt][Cl]` [Cisplatin, cisplatin] was tested, and the “efficacy in MUC 1 cell lines” value (MUC 1 cell lines) was “ineffective”.
In the case of `CC(=O)N[C@@H](CS)C(=O)O` [NAC, N-acetyl cysteine], the “effect of treatment on PMP tumor (Table 1)” value (PMP tumor/mucin; agent alone, 31 patients) was “ineffective”, the “reduction of weight of mucin tumor” value (PMP tumor/mucin; in every case, agent on its own, 300 μg/ml Br or 5% NAC, 3 hours at 37° C.) was “no (or a very modest) reduction of weight” and the “Residual mucin weight post treatment” value (PMP tumor/mucin; patient P1, mucin type soft, 3 hours at 37° C.) was 1.90 g and 1.67 g. For the same molecule, the “Residual mucin weight post treatment” value (PMP tumor/mucin; patient P2, mucin type soft, 3 hours at 37° C.) was 1.39 g and 1.53 g, the “Residual mucin weight post treatment” value (PMP tumor/mucin; patient P3, mucin type soft, 3 hours at 37° C.) was 1.80 g and 1.83 g and the “Residual mucin weight post treatment” value (PMP tumor/mucin; patient P4, mucin type Semi solid, 3 hours at 37° C.) was 1.28 g and 1.53 g. The “Residual mucin weight post treatment” value (PMP tumor/mucin; patient P5, mucin type Hard, 3 hours at 37° C.) was 1.69 g and 1.79 g, the “Residual mucin weight post treatment” value (PMP tumor/mucin; patient P6, mucin type soft, 3 hours at 37° C.) was 2.13 g and 2.08 g and the “Residual mucin weight post treatment” value (PMP tumor/mucin; patient P7, mucin type soft, 3 hours at 37° C.) was 2.13 g and 2.08 g. For the same molecule, the “Residual mucin weight post treatment” value (PMP tumor/mucin; patient P8, mucin type soft, 3 hours at 37° C.) was 0.95 g and 1.61 g, the “Residual mucin weight post treatment” value (PMP tumor/mucin; patient P9, mucin type Signet ring carcinoma, 3 hours at 37° C.) was 1.42 g and 1.56 g and the “Residual mucin weight post treatment” value (PMP tumor/mucin; patient P10, mucin type Hard, 3 hours at 37° C.) was 1.82 g and 1.73 g. The “Residual mucin weight post treatment” value (PMP tumor/mucin; patient P12, mucin type Semi Hard, 3 hours at 37° C.) was 1.81 g and 1.94 g, the “Residual mucin weight post treatment” value (PMP tumor/mucin; patient P13, mucin type Hard, 3 hours at 37° C.) was 1.73 g and 1.43 g and the “Residual mucin weight post treatment” value (PMP tumor/mucin; patient P14, mucin type soft, 3 hours at 37° C.) was 1.60 g and 1.57 g. The “Residual mucin weight post treatment” value (PMP tumor/mucin; patient P15, mucin type soft, 3 hours at 37° C.) was 1.36 g and 1.37 g, the “Residual mucin weight post treatment” value (PMP tumor/mucin; patient P16, mucin type soft, 3 hours at 37° C.) was 1.69 g and 1.62 g and the “Residual mucin weight post treatment” value (PMP tumor/mucin; patient P17, Scraped mucin from mucoid tissues, 3 hours at 37° C.) was 2.64 g. The “Residual mucin weight post treatment” value (PMP tumor/mucin; patient P18, mucin type soft, 3 hours at 37° C.) was 2.31 g and 2.24 g, the “Residual mucin weight post treatment” value (PMP tumor/mucin; patient P19, Semi soft Mucin deposits on tissue, 3 hours at 37° C.) was 1.79 g and 1.89 g and the “Residual mucin weight post treatment” value (PMP tumor/mucin; patient P20, mucin type soft, 3 hours at 37° C.) was 2.34 g and 2.36 g. For the same molecule, the “Residual mucin weight post treatment” value (PMP tumor/mucin; patient P21, mucin type soft, 3 hours at 37° C.) was 2.38 g and 1.74 g, the “Residual mucin weight post treatment” value (PMP tumor/mucin; patient P22, Adeno-carcinoma, 3 hours at 37° C.) was 1.74 g and 1.64 g and the “Residual mucin weight post treatment” value (PMP tumor/mucin; patient P23, mucin type Semi solid, 3 hours at 37° C.) was 1.76 g. For the same molecule, the “Residual mucin weight post treatment” value (PMP tumor/mucin; patient P24, Mucin deposits on tissue, 3 hours at 37° C.) was 1.64 g and 1.46 g, the “Residual mucin weight post treatment” value (PMP tumor/mucin; patient P25, mucin type Hard, 3 hours at 37° C.) was 1.49 g and 1.37 g and the “Residual mucin weight post treatment” value (PMP tumor/mucin; patient P26, mucin type Hard, 3 hours at 37° C.) was 1.23 g and 1.26 g. For the same molecule, the “Residual mucin weight post treatment” value (PMP tumor/mucin; patient P27, mucin type soft, 3 hours at 37° C.) was 1.92 g and 2.03 g, the “Residual mucin weight post treatment” value (PMP tumor/mucin; patient P28, mucin type soft, 3 hours at 37° C.) was 1.48 g and the “Residual mucin weight post treatment” value (PMP tumor/mucin; patient P29, mucin type soft, 3 hours at 37° C.) was 1.21 g. For the same molecule, the “Residual mucin weight post treatment” value (PMP tumor/mucin; patient P30, mucin type soft, 3 hours at 37° C.) was 1.26 g and 1.16 g, the “Residual mucin weight post treatment” value (PMP tumor/mucin; patient P31, mucin type Hard, 3 hours at 37° C.) was 1.56 g and 1.84 g and the “effect on dissolution of human PMP mucin” value (human PMP mucin) was “no effect”. For the same molecule, the “effect on in vitro growth” value [1] was “no or little effect”, the “efficacy against 5M21” value (variant of HT29 (5M21)) was “not effective” and the “growth inhibition of PET and YOU” value ([2]; 50 mM NAC alone) was “ineffective”. For the same molecule, the “growth inhibition of PET and YOU” value ([2]; FIG. 9 and 10) was “no action”.
